The subject of this test is RAW 264.7 cells. Put plainly: Production of ROS in cells (DCF-DA, flow cytometry). It counts as cell-based, murine. The settings on record: RANKL 100 ng/mL; DCF-DA staining. The procedure:
After RAW 264.7 cells were aliquoted at 5×10^4 cells/well into 6-well plates and stabilized for 24 hours, RAW 264.7 cells were induced into differentiation by RANKL (100 ng/mL), treated with FO at each concentration, cultured for 5 days, and then stained at 37° C. for 30 minutes by treatment with 10 μM DCF-DA, and then measured using flow cytometry.
It is known that oxidative stress in cells occurs during the differentiation of osteoclasts induced by RANKL. Therefore, the effects of FO on the production of ROS induced by RANKL was confirmed through DCF-DA staining.

Results on one compound are retold here after US20190381108A1, “COMPOSITION FOR IMPROVING BONE HEALTH, INCLUDING FUNCTIONAL FERMENTED MATERIAL USING OYSTERS” (Jeju National University Industry-Academic Cooperation …, priority 2018, published 2019).

Structures are written as SMILES.

Turning to `CC(=O)N[C@@H](CS)C(=O)O` [NAC], the “ROS increased in the osteoclasts treated with RANKL” value is recorded as “also similarly observed”.
